The target of test [1] is T1, McrBΔN (Escherichia coli, UniProt P15005).
T1 construct: gene mcrB; C-terminal Gly-Ser-His6 tag (untagged version for SAXS)
The test is described as follows: SAXS of nucleotide-dependent hexamer. The test is classed as binding. The following applies: McrBΔN without His-tag, 1 mg/ml.

Test [2] addresses T2, McrB (Escherichia coli, UniProt P15005). The test is described as follows: steady-state intrinsic tryptophan fluorescence. The test is classed as binding. The following applies: 0.5 uM McrB, 1 mM nucleotide, 5 mM MgCl2, pH 8, 25 C.
A further test addresses T3, McrBΔNC (Escherichia coli, UniProt P15005).
T3 construct: gene mcrB; McrB residues 162-460 (without His6 tag for SEC-MALS and SAXS) plus untagged McrC; tetradecamer 500 kDa; with Type IV methyl-directed restriction enzyme EcoKMcrBC (5-methylcytosine-specific restriction enzyme subunit McrC)
The test is described as follows: SAXS of nucleotide-dependent tetradecamer. Format: binding. The following applies: 1 mg/ml protein.

The next test concerns the target T4, McrBC (Escherichia coli, UniProt P15005).
T4 construct: gene mcrB; full-length McrB with C-terminal Gly-Ser-His6 plus untagged McrC, mixed 4:1 or SEC-purified complex; tetradecamer 734 kDa; with Type IV methyl-directed restriction enzyme EcoKMcrBC (5-methylcytosine-specific restriction enzyme subunit McrC)
Description: steady-state intrinsic tryptophan fluorescence. Format: binding. The following applies: 0.5 uM McrB, 0.125 uM McrC, 1 mM nucleotide, 5 mM MgCl2, pH 8, 25 C.

The target of test [3] is T1, McrBΔN. The test is described as follows: SEC, nucleotide-induced oligomerisation. The test is classed as binding. To be noted: 18 uM protein, MgCl2, pH 8. A general note: In gel filtration, larger molecules generally elute earlier.
The target of test [4] is McrB (Escherichia coli, UniProt P15005, E280Q). The test is described as follows: SEC-MALS, hexamer with nucleotide. The following applies: 18 uM protein. The test is classed as binding.
For test [5], the target named is T2, McrB. The test is described as follows: SEC, nucleotide-induced oligomerisation. The test is classed as binding. To be noted: 18 uM protein, MgCl2, pH 8.
Test [6] deals with McrB (Escherichia coli, UniProt P15005, E280A). The test is described as follows: SEC-MALS, hexamer with nucleotide. The following applies: 18 uM protein. The test is classed as binding.
Test [7] deals with T1, McrBΔN. The test is described as follows: electron cryomicroscopy 2D class averages, hexamer. The test is classed as binding. The following applies: 1 mM GDPNP, 1 mM MgCl2, pH 7.4.
The target in test [8] is T1, McrBΔN. The test is described as follows: malachite green GTPase; SEC and SEC-MALS oligomerisation. The test is classed as biochemical. To be noted: 1 mM GTP, 15 mM MgCl2, 50 mM KCl, pH 8, 37 C.
Test [9] deals with McrBΔN^WT (McrBΔN without His6 tag) (Escherichia coli K12) (UniProt P15005). Description: SAXS; 1 mg/ml protein in buffer B100 with GTPγS, 15°C, beamline B21 Diamond; mass by SAXSMoW2.
For test [10] the target is unchanged. Description: SEC-MALS; Superose 6 10/300, 0.5 ml/min, 10 mM Tris-Cl pH 7.4, 100 mM NaCl, 1 mM MgCl2, 1 mM DTT, 0.1 mM GTP; McrBC and McrBΔNC complexes run at 0.6 mg/ml.
The target of test [11] is McrB (full length, C-terminal His6) (Escherichia coli K12) (UniProt P15005). The test is described as above.

On to `Nc1nc2c(ncn2[C@@H]2O[C@H](COP(=O)(O)OP(=O)(O)OP(O)(O)=S)[C@@H](O)[C@H]2O)c(=O)[nH]1` [GTPγS], for which the “SAXS of nucleotide-dependent hexamer” value at McrBΔN [1] was “Good quality data was collected for McrBΔN and McrBΔNC in presence of the non-hydrolysable analogue GTPγS”. The Trp fluorescence increase is ~ 30% at McrB [2] and ~ 23% at McrBC. Besides, the “SAXS of nucleotide-dependent tetradecamer” value on McrBΔNC was “Good quality data was collected for McrBΔN and McrBΔNC in presence of the non-hydrolysable analogue GTPγS”.

Regarding `Nc1nc2c(ncn2[C@@H]2O[C@H](COP(=O)(O)OP(=O)(O)O)[C@@H](O)[C@H]2O)c(=O)[nH]1` [GDP], the “SEC, nucleotide-induced oligomerisation” value is “In presence of GTP or GDP, McrB and McrBΔN eluted as a high molecular mass oligomer” at McrBΔN [3]; “In presence of GTP or GDP, McrB and McrBΔN eluted as a high molecular mass oligomer” on McrB [5]. Further, the “SEC-MALS, hexamer with nucleotide” value at McrB [4] and at McrB [6] was “had a mass comparable to wild type McrB hexamer in presence of GTP or GDP” each time.

As to `Nc1nc2c(ncn2[C@@H]2O[C@H](COP(=O)(O)OP(=O)(O)NP(=O)(O)O)[C@@H](O)[C@H]2O)c(=O)[nH]1` [GDPNP], the Trp fluorescence increase on McrB [2] is recorded as ~ 20%; on McrBC, ~ 15%. In addition, the “electron cryomicroscopy 2D class averages, hexamer” value on McrBΔN [7] is recorded as “Imaging of McrB or McrBΔN after the addition of GDPNP showed round particles”.

On to `Nc1nc2c(ncn2[C@@H]2O[C@H](COP(=O)(O)OP(=O)(O)OP(=O)(O)O)[C@@H](O)[C@H]2O)c(=O)[nH]1` [GTP], for which the results for the Trp fluorescence increase at McrB [2] (weak GTPase without McrC) and at McrBC (GTP hydrolysed by this complex) were ~ 20% and ~ 15%, respectively. The “SEC-MALS, hexamer with nucleotide” value on McrB [4] and on McrB [6] was “had a mass comparable to wild type McrB hexamer in presence of GTP or GDP” in each case. For the same molecule, the “malachite green GTPase; SEC and SEC-MALS oligomerisation” value on McrBΔN [8] was “only a weak GTPase activity for both McrB (Figure 5A) and McrBΔN”.

B1: McrC (natural protein)
chain: MEQPVIPVRNIYYMLTYAWGYLQEIKQANLEAIPGNNLLDILGYVLNKGVLQLSRRGLELDYNPNTEIIPGIKGRIEFAKTIRGFHLNHGKTVSTFDMLNEDTLANRIIKSTLAILIKHEKLNSTIRDEARSLYRKLPGISTLHLTPQHFSYLNGGKNTRYYKFVISVCKFIVNNSIPGQNKGHYRFYDFERNEKEMSLLYQKFLYEFCRRELTSANTTRSYLKWDASSISDQSLNLLPRMETDITIRSSEKILIVDAKYYKSIFSRRMGTEKFHSQNLYQLMNYLWSLKPENGENIGGLLIYPHVDTAVKHRYKINGFDIGLCTVNLGQEWPCIHQELLDIFDEYLK
B1: the copies of McrB in the complex in test [9], in test [10] and in test [11] was 12 in each case. Moreover, the copies of McrC in the complex in [9], in test [10] and in test [11] was 2 in each case.

The values above are taken from PMC6344862, “Hexameric assembly of the AAA+ protein McrB is necessary for GTPase activity” (Nucleic Acids Research, 2018).
